In brackets after ≈: the same amount, converted by molar mass.
Experiments:
Type in all cases: cell-based
[1] = test system: STREPTOCOCCUS PYOGENES 930; test: In vitro antibacterial activity, MIC, BHI agar dilution; conditions: S. pyogenes 930, unit assumed
[2] = test system: ENTEROBACTER AEROGENES ATCC 13048; test: as above; conditions: E. aerogenes ATCC 13048, unit assumed
[3] = test system: ESCHERICHIA COLI DC-2; test: as above; conditions: E. coli DC-2, unit assumed
[4] = test system: ESCHERICHIA COLI JUHL; conditions: E. coli JUHL; BHI agar; unit assumed
[5] = test system: ESCHERICHIA COLI H560; test: In vitro antibacterial activity, MIC, BHI agar dilution; conditions: E. coli H560, unit assumed
[6] = test system: STAPHYLOCOCCUS EPIDERMIDIS 3519; conditions: S. epidermidis 3519; BHI agar; unit assumed
[7] = test system: PSEUDOMONAS AERUGINOSA DPHD-5263; test: In vitro antibacterial activity, MIC, BHI agar dilution; conditions: P. aeruginosa DPHD-5263, unit assumed
[8] = test system: PROVIDENCIA STUARTII CMX 640; conditions: P. stuartii CMX 640; BHI agar; unit assumed
[9] = test system: PSEUDOMONAS CEPACIA 296I; test: In vitro antibacterial activity, MIC, BHI agar dilution; conditions: P. cepacia 296I, unit assumed
[10] = test system: PSEUDOMONAS AERUGINOSA K799/61; test: as above; conditions: P. aeruginosa K799/61, unit assumed
[11] = test system: EN[…] ATCC 8043; test: as above; conditions: E. faecium ATCC 8043, unit assumed
In short: (§1)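 MIC was read visually as the lowest drug level with no growth, a slight haze or sparsely isolated colonies relative to a compound-free growth control. Organisms were spotted at 1:100 dilution (1:10 for slow-growing strains) onto Brain Heart Infusion agar containing serial compound dilutions and incubated 20 to 24 hours at 35-37° C.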

[12] = test system: M[…] ATCC 4698; test: as above; conditions: M. luteus ATCC 4698, unit assumed
In short: as §1

[13] = test system: STR[…] 508; test: as above; conditions: S. agalactiae CMX 508, unit assumed
In short: as §1

[14] = test system: M[…] ATCC 9341; test: as above; conditions: M. luteus ATCC 9341, unit assumed
In short: as §1

[15] = test system: PSEUDOMONAS AERUGINOSA 5007; test: as above; conditions: P. aeruginosa 5007, unit assumed
[16] = test system: ESCHERICHIA COLI KNK 437; conditions: E. coli KNK 437; BHI agar; unit assumed
[17] = test system: STAPHYLOCOCCUS AUREUS A5177; test: In vitro antibacterial activity, MIC, BHI agar dilution; conditions: S. aureus A5177, unit assumed
[18] = test system: STAPHYLOCOCCUS AUREUS A-5278; test: as above; conditions: S. aureus A-5278, unit assumed
[19] = test system: STAPHYLOCOCCUS AUREUS CMX 553; test: as above; conditions: S. aureus CMX 553, unit assumed
[20] = test system: STREPTOCOCCUS PYOGENES EES61; test: as above; conditions: S. pyogenes EES61, unit assumed
[21] = test system: STREPTOCOCCUS BOVIS A-5169; test: as above; conditions: S. bovis A-5169, unit assumed
[22] = test system: CANDIDA ALBICANS CCH 442; test: as above; conditions: C. albicans CCH 442, unit assumed
[23] = test system: STREPTOCOCCUS PYOGENES PIU 2548; test: as above; conditions: S. pyogenes PIU 2548, unit assumed
[24] = test system: MYCOBACTERIUM SMEGMATIS ATCC 114; test: as above; conditions: M. smegmatis ATCC 114, unit assumed
[25] = test system: KLEBSIELLA PNEUMONIAE ATCC 8045; test: as above; conditions: K. pneumoniae ATCC 8045, unit assumed
[26] = test system: STAPHYLOCOCCUS AUREUS NCTC10649M; test: as above; conditions: S. aureus NCTC10649M, unit assumed
[27] = test system: ESCHERICHIA COLI SS; test: as above; conditions: E. coli SS, unit assumed
[28] = test system: STAPHYLOCOCCUS AUREUS 1775; test: as above; conditions: S. aureus 1775, unit assumed
[29] = test system: PSEUDOMONAS AERUGINOSA BMH10; test: as above; conditions: P. aeruginosa BMH10, unit assumed
[30] = test system: STAPHYLOCOCCUS AUREUS CMX 642A; test: as above; conditions: S. aureus CMX 642A, unit assumed
[31] = test system: STAPHYLOCOCCUS AUREUS ATCC 6538P; test: as above; conditions: S. aureus ATCC 6538P, 35-37° C., 20 to 24 hours, unit assumed
[32] = test system: PSEUDOMONAS AERUGINOSA K799/WT; test: as above; conditions: P. aeruginosa K799/WT, unit assumed
[33] = test system: PSEUDOMONAS AERUGINOSA DPHD-2862; test: as above; conditions: P. aeruginosa DPHD-2862, unit assumed

SMILES	MIC [1] [mg/L]	MIC [2] [mg/L]	MIC [3] [mg/L]	MIC [4] [mg/L]	MIC [5] [mg/L]	MIC [6] [mg/L]	MIC [7] [mg/L]	MIC [8] [mg/L]	MIC [9] [mg/L]	MIC [10] [mg/L]	MIC [11] [mg/L]	MIC [12] [mg/L]	MIC [13] [mg/L]	MIC [14] [mg/L]	MIC [15] [mg/L]	MIC [16] [mg/L]	MIC [17] [mg/L]	MIC [18] [mg/L]	MIC [19] [mg/L]	MIC [20] [mg/L]	further results
CC[C@H]1OC(=O)[C@H](C)C(=O)[C@H](C)[C@@H](O[C@@H]2O[C@H](C)C[C@H](N(C)C)[C@H]2O)[C@](C)(OC)C[C@@H](C)C2=N[C@H](COCc3ccccc3F)CN3C(=O)O[C@@]1(C)[C@H]3[C@H]2C [Example 102]	> 100	> 100	> 100	100 (≈ 129 µM)	50 (≈ 64.4 µM)	0.2 (≈ 0.258 µM)	> 100	> 100	50 (≈ 64.4 µM)	3.1 (≈ 4 µM)	0.01 (≈ 0.0129 µM)	0.02 (≈ 0.0258 µM)	0.01 (≈ 0.0129 µM)	≤ 0.005	> 100	> 100	0.1 (≈ 0.129 µM)	> 100	0.1 (≈ 0.129 µM)	0.01 (≈ 0.0129 µM)	MIC [21]: 0.01 mg/L (≈ 0.0129 µM); MIC [22]: > 100 mg/L; MIC [23]: 0.2 mg/L (≈ 0.258 µM); MIC [24]: 0.01 mg/L (≈ 0.0129 µM); MIC [25]: > 100 mg/L; MIC [26]: 0.1 mg/L (≈ 0.129 µM); MIC [27]: 0.39 mg/L (≈ 0.503 µM); MIC [28]: > 100 mg/L; MIC [29]: > 100 mg/L; MIC [30]: 0.2 mg/L (≈ 0.258 µM); MIC [31]: 0.2 mg/L (≈ 0.258 µM); MIC [32]: > 100 mg/L; MIC [33]: > 100 mg/L
CC[C@H]1OC(=O)[C@H](C)C(=O)[C@H](C)[C@@H](O[C@@H]2O[C@H](C)C[C@H](N(C)C)[C@H]2O)[C@](C)(OC)C[C@@H](C)C2=N[C@H](COCc3ccc(Br)cc3)CN3C(=O)O[C@@]1(C)[C@H]3[C@H]2C [Example 103]	25 (≈ 29.9 µM)	> 100	100 (≈ 119 µM)	100 (≈ 119 µM)	100 (≈ 119 µM)	0.05 (≈ 0.0597 µM)	> 100	> 100	50 (≈ 59.7 µM)	0.78 (≈ 0.932 µM)	≤ 0.005	≤ 0.005	≤ 0.005	≤ 0.005	> 100	> 100	0.05 (≈ 0.0597 µM)	100 (≈ 119 µM)	0.05 (≈ 0.0597 µM)	≤ 0.005	MIC [21]: ≤ 0.005 mg/L; MIC [22]: 50 mg/L (≈ 59.7 µM); MIC [23]: 0.05 mg/L (≈ 0.0597 µM); MIC [24]: 0.2 mg/L (≈ 0.239 µM); MIC [25]: > 100 mg/L; MIC [26]: 0.05 mg/L (≈ 0.0597 µM); MIC [27]: 0.39 mg/L (≈ 0.466 µM); MIC [28]: 100 mg/L (≈ 119 µM); MIC [29]: > 100 mg/L; MIC [30]: 0.05 mg/L (≈ 0.0597 µM); MIC [31]: 0.05 mg/L (≈ 0.0597 µM); MIC [32]: > 100 mg/L; MIC [33]: > 100 mg/L
CC[C@H]1OC(=O)[C@H](C)C(=O)[C@H](C)[C@@H](O[C@@H]2O[C@H](C)C[C@H](N(C)C)[C@H]2O)[C@](C)(OC)C[C@@H](C)C2=NC3CCCC3N3C(=O)O[C@@]1(C)[C@H]3[C@H]2C (stereo partly drawn) [Example 107]	> 100	> 100	> 100	> 100	50 (≈ 73.8 µM)	0.78 (≈ 1.15 µM)	> 100	> 100	> 100	6.2 (≈ 9.15 µM)	0.1 (≈ 0.148 µM)	0.39 (≈ 0.575 µM)	0.02 (≈ 0.0295 µM)	0.05 (≈ 0.0738 µM)	> 100	> 100	0.78 (≈ 1.15 µM)	> 100	0.78 (≈ 1.15 µM)	0.02 (≈ 0.0295 µM)	MIC [21]: 0.01 mg/L (≈ 0.0148 µM); MIC [22]: > 100 mg/L; MIC [23]: 0.39 mg/L (≈ 0.575 µM); MIC [24]: 1.56 mg/L (≈ 2.3 µM); MIC [25]: > 100 mg/L; MIC [26]: 0.78 mg/L (≈ 1.15 µM); MIC [27]: 0.39 mg/L (≈ 0.575 µM); MIC [28]: > 100 mg/L; MIC [29]: > 100 mg/L; MIC [30]: 0.78 mg/L (≈ 1.15 µM); MIC [31]: 0.78 mg/L (≈ 1.15 µM); MIC [32]: > 100 mg/L; MIC [33]: > 100 mg/L
CC[C@H]1OC(=O)[C@H](C)C(=O)[C@H](C)[C@@H](O[C@@H]2O[C@H](C)C[C@H](N(C)C)[C@H]2O)[C@](C)(OC)C[C@@H](C)C2=NC3CNCC3N3C(=O)O[C@@]1(C)[C@H]3[C@H]2C (stereo partly drawn) [Example 109]	> 100	25 (≈ 36.8 µM)	12.5 (≈ 18.4 µM)	25 (≈ 36.8 µM)	6.2 (≈ 9.13 µM)	0.39 (≈ 0.574 µM)	> 100	> 100	> 100	0.39 (≈ 0.574 µM)	0.1 (≈ 0.147 µM)	0.2 (≈ 0.295 µM)	0.1 (≈ 0.147 µM)	0.05 (≈ 0.0737 µM)	> 100	25 (≈ 36.8 µM)	0.39 (≈ 0.574 µM)	> 100	0.78 (≈ 1.15 µM)	0.05 (≈ 0.0737 µM)	MIC [21]: 0.05 mg/L (≈ 0.0737 µM); MIC [22]: > 100 mg/L; MIC [23]: 0.78 mg/L (≈ 1.15 µM); MIC [24]: 3.1 mg/L (≈ 4.57 µM); MIC [25]: 25 mg/L (≈ 36.8 µM); MIC [26]: 0.39 mg/L (≈ 0.574 µM); MIC [27]: 0.2 mg/L (≈ 0.295 µM); MIC [28]: > 100 mg/L; MIC [29]: 50 mg/L (≈ 73.7 µM); MIC [30]: 0.39 mg/L (≈ 0.574 µM); MIC [31]: 0.39 mg/L (≈ 0.574 µM); MIC [32]: > 100 mg/L; MIC [33]: > 100 mg/L
